Laboratory results as given in US20080085893A1, “MATRIX METALLOPROTEASE INHIBITORS” (priority 2006, published 2008).
“And” between values parts separate entries of the source, which are not always exact repeats. Identical values can stand only once. Like-named read-outs stand apart in the source and are kept apart here.

What was measured:
[1] = target: T1, human MMP-9 (amino acids 107-446) (Homo sapiens, UniProt P14780); test: MMP dose response assay for determining IC50, MMP-9; type: biochemical; settings: for IC50: recombinant enzyme, fluorescent-quench substrate 100 nM, read-out: MMP-9; for inhibition at 10 µM: read-out: MMP-9 % inhibition at 10 μM
T1 construct: human MMP-9 (amino acids 107-446); made in house
T1 sequence (P14780 107-446): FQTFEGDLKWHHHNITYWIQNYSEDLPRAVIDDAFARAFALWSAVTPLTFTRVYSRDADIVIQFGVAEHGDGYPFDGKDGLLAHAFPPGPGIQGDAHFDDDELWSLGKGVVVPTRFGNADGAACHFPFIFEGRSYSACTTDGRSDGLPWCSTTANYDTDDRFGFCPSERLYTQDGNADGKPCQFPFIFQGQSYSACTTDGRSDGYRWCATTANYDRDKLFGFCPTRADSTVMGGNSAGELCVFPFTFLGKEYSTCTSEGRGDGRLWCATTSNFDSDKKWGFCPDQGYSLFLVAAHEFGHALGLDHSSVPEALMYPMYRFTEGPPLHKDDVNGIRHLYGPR
Procedure: (§1) MMP Dose Response Assay for Determining IC50
(§2) The following method was used for determining IC50 values of different inhibitor compounds against multiple MMP enzymes. Frozen stocks of recombinantly produced MMPs were prepared in assay buffer (50 mM HEPES pH 7.4, 10 mM CaCl2, 0.05% Brij-35). […] Enzyme concentrations in the assay were determined empirically and set such that proteolytic activity was maintained in a linear range over the time-course of the experiment. […] Each concentration for each test compound was tested in triplicate. MMP enzymes were equilibrated with compounds for 1 hour at room temperature, then a fluorescent-quench substrate (Acetyl-Cys(Eu)-Pro-Leu-Gly-Leu-Lys-(QSY7)-Ala-Arg-amide) was added to a final concentration of 100 nM. […] Data was analyzed by first calculating average background value from wells that contained only substrate, and this value was subtracted from the entire plate. The 100%, or maximum value, was determined by averaging control wells that contained enzyme, substrate and DMSO. For each well, the percent of control was calculated by dividing the well value by the average DMSO value obtained above.

[2] = target: T2, human MMP-2 (amino acids 1-660) (Homo sapiens, UniProt P08253); test: MMP dose response assay for determining IC50, MMP-2; type: biochemical; settings: for inhibition at 10 µM: read-out: MMP-2 % inhibition at 10 μM
T2 construct: human MMP-2 (amino acids 1-660); made in house
T2 sequence (P08253 110-660): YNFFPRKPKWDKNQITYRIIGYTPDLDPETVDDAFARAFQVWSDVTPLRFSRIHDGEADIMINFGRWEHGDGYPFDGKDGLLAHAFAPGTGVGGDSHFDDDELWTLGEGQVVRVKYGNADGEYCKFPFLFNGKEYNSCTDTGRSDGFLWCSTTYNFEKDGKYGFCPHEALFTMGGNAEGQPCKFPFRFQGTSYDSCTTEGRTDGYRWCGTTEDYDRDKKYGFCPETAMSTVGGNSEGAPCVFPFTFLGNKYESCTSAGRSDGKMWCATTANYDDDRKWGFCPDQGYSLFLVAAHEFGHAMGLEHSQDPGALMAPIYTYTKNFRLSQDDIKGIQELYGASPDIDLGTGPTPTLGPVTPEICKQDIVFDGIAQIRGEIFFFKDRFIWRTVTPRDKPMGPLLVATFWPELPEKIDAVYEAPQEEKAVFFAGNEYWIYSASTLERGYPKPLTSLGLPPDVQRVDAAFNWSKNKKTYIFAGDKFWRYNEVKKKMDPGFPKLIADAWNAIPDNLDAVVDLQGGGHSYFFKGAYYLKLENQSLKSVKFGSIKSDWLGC
Procedure: as §1, §2

[3] = recombinant enzyme, fluorescent-quench substrate 100 nM, read-out: MMP-2

Row | SMILES | IC50 [1] | IC50 [2, 3] | inhibition at 10 µM [2] [%] | inhibition at 10 µM [1] [%] | IC50 ([2]; MMP-2 (nM)) [nM]
1 | CS(=O)(=O)N(C[C@H](O)C(=O)NO)c1ccc(Oc2ccc(C(F)(F)F)cn2)cc1 [Example 53, N-Hydroxy (2S)-2-hydroxy-3-{N-{4-[(5-trifluoromethylpyridin-2-yl)oxy]phenyl},N-methanesulfonylamino}propionamide] | 472 nM | – | – | – | –
2 | CS(=O)(=O)N(C[C@H](Nc1cccc(F)c1)C(=O)NO)c1ccc(Oc2ccc(C(F)(F)F)cc2)cc1 [Example 59, N-Hydroxy (2S)-2-(3-fluorophenyl)amino-3-{N-[4-(4-trifluoromethylphenoxy)phenyl],N-methanesulfonylamino}propionamide] | 31.9 nM | 466 nM | – | – | –
3 | COc1ccc(C#Cc2ccc(N(C[C@H](O)C(=O)NO)S(C)(=O)=O)cc2)cc1 [Example 61, N-Hydroxy (2S)-2-hydroxy-3-{N-[4-(4-methoxyphenylacetylene)phenyl],N-methanesulfonylamino}propionamide] | 91 nM | – | – | – | 31.6
4 | CS(=O)(=O)N(C[C@H](O)C(=O)NO)c1ccc(Oc2ccc(C(F)(F)F)cc2)cc1 [Example 54, N-Hydroxy (2S)-2-hydroxy-3-{N-[4-(4-trifluoromethylphenoxy)phenyl],N-methanesulfonylamino}propionamide] | 17.2 nM and 10.7 nM | 175 nM and 102 nM | – | – | –
5 | Cc1ccc(Oc2ccc(N(C[C@H](O)C(=O)NO)S(C)(=O)=O)cc2)cc1 [Example 8, N-Hydroxy (2S)-2-hydroxy-3-{N-[4-(4-methylphenoxy)phenyl],N-methanesulfonylamino}propionamide] | 10.5 nM and 11.1 nM and 10.1 nM and 3.37 nM and 4.69 nM and 7.57 nM | 88.5 nM and 67.8 nM and 98.2 nM and 65 nM and 51.9 nM and 71.5 nM | – | – | –
6 | Cc1ccc(Oc2ccc(N(C[C@H](Nc3ccc(OC(F)(F)F)cc3)C(=O)NO)S(C)(=O)=O)cc2)cc1 [Example 50, N-Hydroxy (2S)-3-{N-[4-(4-methylphenoxy)phenyl],N-methanesulfonylamino}-2-(4-trifluoromethoxyphenyl)aminopropionamide] | 73.6 nM | 877 nM | – | – | –
7 | Cc1ccc(Oc2ccc(N(C[C@H](Nc3cccc(OC(F)(F)F)c3)C(=O)NO)S(C)(=O)=O)cc2)cc1 [Example 52, N-Hydroxy (2S)-3-{N-[4-(4-methylphenoxy)phenyl],N-methanesulfonylamino}-2-(3-trifluoromethoxyphenyl)aminopropionamide] | 165 nM | 1080 nM | – | – | –
8 | CS(=O)(=O)N(C[C@@H](O)C(=O)NO)c1ccc(-c2ccccc2)cc1 [Example 9, N-Hydroxy (2R)-2-hydroxy-3-[N-(4-phenyl)phenyl,N-methanesulfonylamino]propionamide] | – | – | 83.6 | 78.7 | –
9 | CC(C)CN(O)C(=O)[C@H](CN(c1ccc(Oc2ccc(C(F)(F)F)cc2)cc1)S(C)(=O)=O)N1CCOCC1 [Example 5, N-Hydroxy,N-(2-methylpropyl)(2S)-2-(morpholin-4-yl)-3-{N-[4-(4-trifluoromethylphenoxy)phenyl],N-methanesulfonylamino}propionamide] | 87.9 nM | 261 nM | – | – | –
10 | CC(C)N[C@@H](CN(c1ccc(Oc2ccc(C(F)(F)F)cn2)cc1)S(C)(=O)=O)C(=O)NO [Example 56, N-Hydroxy (2S)-2-(2-propyl)amino-3-{N-{4-[(5-trifluoromethylpyridin-2-yl)oxyl]phenyl},N-methanesulfonylamino}propionamide] | 144 nM | 396 nM | – | – | –
11 | CS(=O)(=O)N(C[C@H](O)C(=O)NO)c1ccc(-c2ccccc2)cc1 [Example 10, N-Hydroxy (2S)-2-hydroxy-3-[N-(4-phenyl)phenyl,N-methanesulfonylamino]propionamide] | – | – | 87 | 79 | –
12 | CC(C)N[C@@H](CN(c1ccc(Oc2ccc(C(F)(F)F)cc2)cc1)S(C)(=O)=O)C(=O)NO [Example 58, N-Hydroxy (2S)-2-(2-propyl)amino-3-{N-[4-(4-trifluoromethylphenoxy)phenyl],N-methanesulfonylamino}propionamide] | 2.37 nM | 9.16 nM | – | – | –
13 | Cc1ccc(Sc2ccc(N(C[C@H](O)C(=O)NO)S(C)(=O)=O)cc2)cc1 [Example 49, N-Hydroxy (2S)-2-hydroxy-3-{N-[4-(4-methylthiophenoxy)phenyl],N-methanesulfonylamino}propionamide] | 62.8 nM and 44.5 nM | 274 nM and 321 nM | – | – | –
14 | CS(=O)(=O)N(C[C@@H](C(=O)NO)N1CCOCC1)c1ccc(Oc2ccc(C(F)(F)F)cn2)cc1 [Example 57, N-Hydroxy (2S)-2-(morpholin-4-yl)-3-{N-{4-[(5-trifluoromethylpyridin-2-yl)oxy]phenyl},N-methanesulfonylamino}propionamide] | 227 nM | 406 nM | – | – | –
15 | CS(=O)(=O)N(C[C@H](Nc1cccc(F)c1)C(=O)NO)c1ccc(Oc2ccc(C(F)(F)F)cn2)cc1 [Example 55, N-Hydroxy (2S)-2-(3-fluorophenyl)amino-3-{N-{4-[(5-trifluoromethylpyridin-2-yl)oxy]phenyl},N-methanesulfonylamino}propionamide] | 410 nM | 1560 nM | – | – | –

More lines, main results first:

Row | IC50 [1] | IC50 [2, 3] | inhibition at 10 µM [2] [%] | inhibition at 10 µM [1] [%] | SMILES | IC50 ([2]; MMP-2 (nM)) [nM]
16 | 2.39 nM | 6.5 nM | – | – | CN1CCN([C@@H](CN(c2ccc(Oc3ccc(Cl)cc3)cc2)S(C)(=O)=O)C(=O)NO)CC1 [Example 92, N-Hydroxy (2S)-3-{N-[4-(4-chlorophenoxy)phenyl],N-methanesulfonylamino}-2-(4-methylpiperazin-1-yl)propionamide] | –
17 | 113 nM | 106 nM | – | – | CC(C)CC#Cc1ccc(N(C[C@@H](C(=O)NO)N2CCOCC2)S(C)(=O)=O)cc1 [Example 94, N-Hydroxy (2S)-3-{N-[4-(4-methylpentyn-1-yl)phenyl],N-methanesulfonylamino}-2-(morpholin-4-yl)propionamide] | –
18 | 0.68 nM | 2.83 nM | – | – | Cc1ccc(Oc2ccc(N(C[C@@H](C(=O)NO)N3C[C@@H](C)O[C@@H](C)C3)S(C)(=O)=O)cc2)cc1 [Example 100, N-Hydroxy (2S)-2-(cis-2,6-dimethylmorpholin-4-yl)-3-{N-[4-(4-methylphenoxy)phenyl],N-methanesulfonylamino}propionamide] | –
19 | 2 nM | 5.52 nM | – | – | CS(=O)(=O)N(C[C@@H](C(=O)NO)N1CCOCC1)c1ccc(Oc2ccc(Cl)cc2)cc1 [Example 89, N-Hydroxy (2S)-2-(morpholin-4-yl)-3-{N-[4-(4-chlorophenoxy)phenyl],N-methanesulfonylamino}propionamide] | –
20 | 0.9 nM | 3.13 nM | – | – | CS(=O)(=O)N(C[C@@H](C(=O)NO)N1CCC(O)CC1)c1ccc(Oc2ccc(Cl)cc2)cc1 [Example 88, N-Hydroxy (2S)-3-{N-[4-(4-chlorophenoxy)phenyl],N-methanesulfonylamino}-2-(4-hydroxypiperidin-1-yl)propionamide] | –
21 | 8.18 nM | 50.3 nM | – | – | CC(C)O[C@@H](CN(c1ccc(Oc2ccc(C(F)(F)F)cc2)cc1)S(C)(=O)=O)C(=O)NO [Example 99, N-Hydroxy (2S)-2-(2-propoxy)-3-{N-[4-(4-trifluoromethylphenoxy)phenyl],N-methanesulfonylamino}propionamide] | –
22 | 64.4 nM and 39.2 nM | 312 nM and 254 nM | – | – | CS(=O)(=O)N(C[C@H](O)C(=O)NO)c1ccc(Sc2ccc(F)cc2)cc1 [Example 90, N-Hydroxy (2S)-2-hydroxy-3-{N-[4-(4-fluorothiophenoxy)phenyl],N-methanesulfonylamino}propionamide] | –
23 | 3.11 nM | 8.77 nM | – | – | CC(C)N1CCN([C@@H](CN(c2ccc(Oc3ccc(Cl)cc3)cc2)S(C)(=O)=O)C(=O)NO)CC1 [Example 91, N-Hydroxy (2S)-3-{N-[4-(4-chlorophenoxy)phenyl],N-methanesulfonylamino}-2-[4-(2-propyl)piperazin-1-yl]Propionamide] | –
24 | 6.53 nM and 6.01 nM | 23 nM and 24.8 nM | – | – | C=CCN(O)C(=O)[C@H](CN(c1ccc(Oc2ccc(C)cc2)cc1)S(C)(=O)=O)N1C[C@@H](C)O[C@@H](C)C1 [Example 102, N-(3-Allyl),N-hydroxy (2S)-2-(cis-2,6-dimethylmorpholin-4-yl)-3-{N-[4-(4-methylphenoxy)phenyl],N-methanesulfonylamino}propionamide] | –
25 | 206 nM | 1400 nM | – | – | CS(=O)(=O)N(C[C@H](O)C(=O)N(O)CCN1CCOCC1)c1ccc(Oc2ccc(Cl)cc2)cc1 [Example 101, N-Hydroxy,N-[2-(morpholin-4-yl)ethyl](2S)-2-hydroxy-3-{N-[4-(4-chlorophenoxy)phenyl],N-methanesulfonylamino}propionamide] | –
